Experimental data: patent US20230248665A1, “COMPOSITION COMPRISING DIMETHYLCHALCONE DERIVATIVE FOR PREVENTION OR TREATMENT OF METABOLIC DISEASE” (SEOUL NATIONAL UNIVERSITY R & DB FOUNDATION, priority 2020, published 2023)

How the values were obtained:
Assay type in all cases: cell-based
AMPK = AMPK activity, western blotting of phosphorylated AMPK in C2C12 myotubes; details: 10 µM, 24 hours, FIG. 2
Excerpt: AMP-activated protein kinase (AMPK) is a member of serine/threonine kinases, and is an enzyme known as an energy sensor which senses the intracellular energy state. Moreover, the activation of AMPK is known to show the effect of increasing glucose transport and promoting fatty acid oxidation in skeletal muscle, and to […] the synthesis of cholesterol and triglycerides, decrease lipogenesis, and increase fatty acid oxidation, and ketogenesis, and the like in the liver. Further, the activation of AMPK is known to reduce adipogenesis in adipose tissue and increase insulin secretion in pancreatic beta cells, thereby being able to be applied to the treatment of various metabolic diseases. Therefore, western blotting was performed in order to confirm the effect of the DMC derivatives of Example 1 on AMPK activity. More specifically, the C2C12 myoblasts were primarily cultured in DMEM supplemented with 10% fetal bovine serum, and then cultured in DMEM supplemented with 2% horse serum for 5 days to differentiate into myotubes. Then, the differentiated myotubes were treated with 10 µM DMC derivative and cultured for 24 hours, and then cells were collected, and disrupted using an ultrasonic disperser to obtain proteins. Next, western blotting was performed using a pAMPK antibody (Cell Signaling Technology) and an AMPK antibody (Cell Signaling Technology) to measure the amount of phosphorylated AMPK. 1 mM AICAR was used as a positive control, and 20 µg of protein was used for each sample in western blotting.

[1] = tested on: vascular endothelial cells (HUVECs) and THP-1 (human monocyte) immune cells; assay: Binding of THP-1 immune cells to TNFα-treated vascular endothelial cells (HUVECs); details: 10 µM with 10 ng/mL TNFα, 24 hours, then THP-1 for 1 hour; FIG. 5
Experimental: In the early stages of progression of vascular diseases such as arteriosclerosis, adhesion materials are expressed in vascular endothelial cells due to various environmental factors, thereby increasing the binding of immune cells. Therefore, in order to check whether the DMC derivatives of Example 1 affect the binding between vascular endothelial cells and immune cells, vascular endothelial cells (HUVECs) were treated with 10 ng/mL TNFα and 10 µM DMC derivative and cultured for 24 hours. Then, THP-1 (human monocyte) immune cells labeled with a fluorescent protein were added to the culture solution, and the cells were additionally cultured for 1 hour. After the culture was completed, unbound immune cells were removed using a phosphate buffer solution, and then the degree of binding of immune cells to vascular endothelial cells was determined by measuring the intensity of fluorescence.

[2] = tested on: rat aortic smooth muscle cells; assay: PDGF-induced migration of vascular smooth muscle cells; details: 1 µM with 10 ng/mL PDGF; FIG. 4
Experimental: Proliferation and migration of vascular smooth muscle cells are known to be essential steps in the progression of vascular diseases such as restenosis and arteriosclerosis. Therefore, in order to confirm the effect of the DMC derivatives of Example 1 on the migration of rat aortic smooth muscle cells, smooth muscle cells were treated with 10 ng/mL platelet-derived growth factor (PDGF) and 1 µM DMC derivative and cultured. Then, the degree of cell migration was measured.

[3] = tested on: human kidney proximal tubule epithelial cell (HK-2) cell line; assay: Antioxidant effect, intracellular reactive oxygen species (DCF-DA) in HK-2 kidney cells after H2O2; details: 1 µM for 18 hours, then 500 µM H2O2 for 6 hours, FIG. 6
Experimental: First, the antioxidant effect was checked using kidney cells. More specifically, a human kidney proximal tubule epithelial cell (HK-2) cell line was treated with 1 µM DMC derivative and cultured for 18 hours. Then, 500 µM H2O2 was added to the culture medium and the culture medium was incubated for 6 hours. Thereafter, the amount of intracellular reactive oxygen species (iROS) was measured using dichlorohydro-fluorescein diacetate (DCF-DA).

SMILES	activity of AMPK (phosphorylated AMPK) (AMPK)	binding of immune cells to vascular endothelial cells (fluorescence) [1]	migration of vascular smooth muscle cells [2]	amount of intracellular reactive oxygen species (ROS) [3]
COc1c(C)c(O)c(C)c(O)c1C(=O)/C=C/c1ccc(C)cc1 [Chemical Formula 3, 1-(2′,4′-dihydroxy-6′-methoxy-3′,5′-dimethylphenyl)-3-(4-tolyl)-2-propen-1-one]	increased the activity of AMPK similarly to or more effectively than the positive controls	similarly or more effectively suppressed the binding of immune cells than Rosi	similarly or more effectively suppressed cell migration by PDGF than AICAR and Rosi, which were used as positive controls, and DMC	effectively reduced ROS
COCOc1c(C)c(O)c(C(=O)/C=C/c2cc(OC)ccc2OC)c(OC)c1C [Chemical Formula 15, 1-(2′-hydroxy-4′-(methoxymethoxy)-6′-methoxy-3′,5′-dimethylphenyl)-3-(2,5-dimethoxyphenyl)-2-propen-1-one]	increased the activity of AMPK similarly to or more effectively than the positive controls	similarly or more effectively suppressed the binding of immune cells than Rosi	similarly or more effectively suppressed cell migration by PDGF than AICAR and Rosi, which were used as positive controls, and DMC	effectively reduced ROS
COc1c(C)c(OC)c(C(=O)/C=C/c2ccc(N(C)C)cc2)c(OC)c1C [Chemical Formula 23, 1-(3′,5′-dimethyl-2′,4′,6′-trimethoxyphenyl)-3-(4-(N,N-dimethylamino)phenyl)-2-propen-1-one]	increased the activity of AMPK similarly to or more effectively than the positive controls	similarly or more effectively suppressed the binding of immune cells than Rosi	similarly or more effectively suppressed cell migration by PDGF than AICAR and Rosi, which were used as positive controls, and DMC	effectively reduced ROS
COCOc1c(C)c(O)c(C(=O)/C=C/c2ccc(F)cc2)c(OC)c1C [Chemical Formula 24, 1-(2′-hydroxy-4′-(methoxymethoxy)-6′-methoxy-3′,5′-dimethylphenyl)-3-(4-fluorophenyl)-2-propen-1-one]	increased the activity of AMPK similarly to or more effectively than the positive controls	similarly or more effectively suppressed the binding of immune cells than Rosi	similarly or more effectively suppressed cell migration by PDGF than AICAR and Rosi, which were used as positive controls, and DMC	effectively reduced ROS
COCOc1c(C)c(O)c(C(=O)/C=C/c2ccccc2)c(OC)c1C [Chemical Formula 25, 1-(2′-hydroxy-4′-(methoxymethoxy)-6′-methoxy-3′,5′-dimethylphenyl)-3-phenyl-2-propen-1-one]	increased the activity of AMPK similarly to or more effectively than the positive controls	similarly or more effectively suppressed the binding of immune cells than Rosi	similarly or more effectively suppressed cell migration by PDGF than AICAR and Rosi, which were used as positive controls, and DMC	effectively reduced ROS
CCOc1ccc(/C=C/C(=O)c2c(O)c(C)c(O)c(C)c2OC)cc1F [Chemical Formula 33, 1-(2′,4′-dihydroxy-6′-methoxy-3′,5′-dimethylphenyl)-3-(4-ethoxy-3-fluorophenyl)-2-propen-1-one]		similarly or more effectively suppressed the binding of immune cells than Rosi	similarly or more effectively suppressed cell migration by PDGF than AICAR and Rosi, which were used as positive controls, and DMC	effectively reduced ROS
